Measurements: ChEMBL document CHEMBL3885861, “Open TG-GATES”

Species: Rattus norvegicus
Assay: Open TG-GATES - Regimen: Single
Type: toxicity, organism-based, Sprague-Dawley
Parameters: regimen Single, gender Male, age 6 weeks
Conditions: in vivo, po, 2 mg/kg, route gavage, dose level Low; for APTT / Bas / Eos / Fbg / Hb / Lym / MCH / MCHC / MCV / Mono / Neu / PT / Plat / RBC / Ret / WBC: tissue Blood; for KIDNEY_L / KIDNEY_R / KIDNEY_TOTAL: tissue Kidney; for LIVER: tissue Liver; for ALP / ALT / AST / BUN / CRE / Ca / Cl / DBIL / GLC / IP / K / LDH / Na / PL / RALB / TBIL / TC / TG / TP / gamma-GTP: tissue Plasma

What does the source list for `OCCN1CCN(CCCN2c3ccccc3Sc3ccc(C(F)(F)F)cc32)CC1` [FLUPHENAZINE]?
TERMINAL_BW (3 h): 193.4 g; APTT (3 h): 16.5 s; Bas (3 h): 0%; Eos (3 h): 0.8%; Fbg (3 h): 231.2 mg/dL; Hb (3 h): 13.2 g/dL; Lym (3 h): 76.6%; MCH (3 h): 21.9 pg; MCHC (3 h): 33.2%; MCV (3 h): 65.9 fL; Mono (3 h): 8.2%; Neu (3 h): 14.6%; PT (3 h): 12.5 s; Plat (3 h): 111 x10_4/uL; RBC (3 h): 605.2 x10_4/ul; Ret (3 h): 7.9%; WBC (3 h): 105.8 x10_2/uL; KIDNEY_L (3 h): 0.9 g; KIDNEY_R (3 h): 0.9 g; KIDNEY_TOTAL (3 h): 1.8 g; LIVER (3 h): 8.9 g; ALP (3 h): 678.4 IU/L; ALT (3 h): 29.6 IU/L; AST (3 h): 56.4 IU/L; BUN (3 h): 10.8 mg/dL; CRE (3 h): 0.5 mg/dL; Ca (3 h): 10.5 mg/dL; Cl (3 h): 105.2 meq/L; DBIL (3 h): 0.012 mg/dL; GLC (3 h): 193.4 mg/dL; IP (3 h): 10.4 mg/dL; K (3 h): 4.8 meq/L; LDH (3 h): 84 IU/L; Na (3 h): 137.8 meq/L; PL (3 h): 148 mg/dL; RALB (3 h): 3.9 g/dL; TBIL (3 h): 0.3 mg/dL; TC (3 h): 88.8 mg/dL; TG (3 h): 40 mg/dL; TP (3 h): 5.6 g/dL; gamma-GTP (3 h): 2.4 IU/L; TERMINAL_BW (6 h): 197 g; APTT (6 h): 16.5 s; Bas (6 h): 0%; Eos (6 h): 0.8%; Fbg (6 h): 220.8 mg/dL; Hb (6 h): 13 g/dL; Lym (6 h): 75.4%; MCH (6 h): 21.5 pg; MCHC (6 h): 33%; MCV (6 h): 65.3 fL; Mono (6 h): 8.6%; Neu (6 h): 15.6%; PT (6 h): 12.4 s; Plat (6 h): 113.3 x10_4/uL; RBC (6 h): 606.4 x10_4/ul; Ret (6 h): 8.7%; WBC (6 h): 86.8 x10_2/uL; KIDNEY_L (6 h): 0.9 g; KIDNEY_R (6 h): 0.9 g; KIDNEY_TOTAL (6 h): 1.8 g; LIVER (6 h): 8.5 g; ALP (6 h): 708.4 IU/L; ALT (6 h): 32.4 IU/L; AST (6 h): 57.2 IU/L; BUN (6 h): 10.2 mg/dL; CRE (6 h): 0.5 mg/dL; Ca (6 h): 10.2 mg/dL; Cl (6 h): 105.8 meq/L; DBIL (6 h): 0.002 mg/dL; GLC (6 h): 184.2 mg/dL; IP (6 h): 10.2 mg/dL; K (6 h): 4.8 meq/L; LDH (6 h): 84.8 IU/L; Na (6 h): 136.8 meq/L; PL (6 h): 150.6 mg/dL; RALB (6 h): 3.7 g/dL; TBIL (6 h): 0.4 mg/dL; TC (6 h): 92.4 mg/dL; TG (6 h): 33.6 mg/dL; TP (6 h): 5.3 g/dL; gamma-GTP (6 h): 2.2 IU/L; TERMINAL_BW (9 h): 192.1 g; APTT (9 h): 16.7 s; Bas (9 h): 0%; Eos (9 h): 0.6%; Fbg (9 h): 223 mg/dL; Hb (9 h): 13.1 g/dL; Lym (9 h): 74.2%; MCH (9 h): 21.6 pg; MCHC (9 h): 33%; MCV (9 h): 65.5 fL; Mono (9 h): 6.6%; Neu (9 h): 19%; PT (9 h): 12.3 s; Plat (9 h): 113.3 x10_4/uL; RBC (9 h): 609.2 x10_4/ul; Ret (9 h): 7.9%; WBC (9 h): 62.2 x10_2/uL; KIDNEY_L (9 h): 0.9 g; KIDNEY_R (9 h): 0.9 g; KIDNEY_TOTAL (9 h): 1.8 g; LIVER (9 h): 8.1 g; ALP (9 h): 829.8 IU/L; ALT (9 h): 27.4 IU/L; AST (9 h): 54.4 IU/L; BUN (9 h): 9 mg/dL; CRE (9 h): 0.5 mg/dL; Ca (9 h): 9.9 mg/dL; Cl (9 h): 104.4 meq/L; DBIL (9 h): 0.022 mg/dL; GLC (9 h): 176.8 mg/dL; IP (9 h): 10 mg/dL; K (9 h): 4.5 meq/L; LDH (9 h): 81.6 IU/L; Na (9 h): 137.2 meq/L; PL (9 h): 135.4 mg/dL; RALB (9 h): 3.6 g/dL; TBIL (9 h): 0.3 mg/dL; TC (9 h): 79.4 mg/dL; TG (9 h): 33.2 mg/dL; TP (9 h): 5.3 g/dL; gamma-GTP (9 h): 2.2 IU/L; TERMINAL_BW (24 h): 213 g; APTT (24 h): 17 s; Bas (24 h): 0%; Eos (24 h): 0.8%; Fbg (24 h): 209.8 mg/dL; Hb (24 h): 13.1 g/dL; Lym (24 h): 86.2%; MCH (24 h): 21.7 pg; MCHC (24 h): 33.2%; MCV (24 h): 65.4 fL; Mono (24 h): 4%; Neu (24 h): 9.2%; PT (24 h): 12.2 s; Plat (24 h): 117 x10_4/uL; RBC (24 h): 605.6 x10_4/ul; Ret (24 h): 7.7%; WBC (24 h): 112.3 x10_2/uL; KIDNEY_L (24 h): 0.9 g; KIDNEY_R (24 h): 0.9 g; KIDNEY_TOTAL (24 h): 1.9 g; LIVER (24 h): 10.8 g; ALP (24 h): 934.6 IU/L; ALT (24 h): 32.6 IU/L; AST (24 h): 56.6 IU/L; BUN (24 h): 22.2 mg/dL; CRE (24 h): 0.5 mg/dL; Ca (24 h): 11 mg/dL; Cl (24 h): 104.2 meq/L; DBIL (24 h): 0.014 mg/dL; GLC (24 h): 178.8 mg/dL; IP (24 h): 7.5 mg/dL; K (24 h): 5.1 meq/L; LDH (24 h): 92.8 IU/L; Na (24 h): 136.6 meq/L; PL (24 h): 166.6 mg/dL; RALB (24 h): 4.1 g/dL; TBIL (24 h): 0.3 mg/dL; TC (24 h): 82.6 mg/dL; TG (24 h): 139.2 mg/dL; TP (24 h): 6 g/dL; gamma-GTP (24 h): 1.6 IU/L
